Tested on: NL-RLuc virus
Experiment: Inhibition of HIV replication (NL-RLuc reporter virus in MT-2 cells, luciferase readout)
Format: cell-based
Conditions: Human immunodeficiency virus 1, MT2, 120 h, read-out: Activity
In short: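 MT-2 cells infected with NL4-3-derived NL-RLuc reporter virus (Renilla luciferase replacing part of nef) with serial compound dilutions, RPMI 1640 + 10% FBS; 5 days. Growth by luciferase; EC50 from median effect equation, ≥2 experiments.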

Compound | EC50 [µM]
Cc1nc(C)c([C@H](OC(C)(C)C)C(=O)O)c(N2CCC(C)(C)CC2)c1-c1ccc2c(c1)CCN(Cc1cccc(C#N)c1)C2 [Compound 61, (S)-2-(tert-butoxy)-2-(5-(2-(3-cyanobenzyl)-1,2,3,4-tetrahydroisoquinolin-6-yl)-4-(4,4-dimethylpiperidin-1-yl)-2,6-dimethylpyridin-3-yl)acetic acid] | < 0.1
COc1ccc(F)c(CN2CCc3cc(-c4c(C)nc(C)c([C@H](OC(C)(C)C)C(=O)O)c4N4CCC(C)(C)CC4)ccc3C2)c1F [Compound 92, (S)-2-(tert-butoxy)-2-(5-(2-(2,6-difluoro-3-methoxybenzyl)-1,2,3,4-tetrahydroisoquinolin-6-yl)-4-(4,4-dimethylpiperidin-1-yl)-2,6-dimethylpyridin-3-yl)acetic acid] | < 0.1
Cc1nc(C)c([C@H](OC(C)(C)C)C(=O)O)c(N2CCC(C)(C)CC2)c1-c1ccc2c(c1)CCN(Cc1cc(C#N)ccc1F)C2 [Compound 63, (S)-2-(tert-butoxy)-2-(5-(2-(5-cyano-2-fluorobenzyl)-1,2,3,4-tetrahydroisoquinolin-6-yl)-4-(4,4-dimethylpiperidin-1-yl)-2,6-dimethylpyridin-3-yl)acetic acid] | < 0.1
Cc1nc(C)c([C@H](OC(C)(C)C)C(=O)O)c(N2CCC(C)(C)CC2)c1-c1ccc2c(c1)CCN(Cc1ccc(C#N)cc1)C2 [Compound 64, (S)-2-(tert-butoxy)-2-(5-(2-(4-cyanobenzyl)-1,2,3,4-tetrahydroisoquinolin-6-yl)-4-(4,4-dimethylpiperidin-1-yl)-2,6-dimethylpyridin-3-yl)acetic acid] | < 0.1
COc1cc(Cl)cc(CN2CCc3cc(-c4c(C)nc(C)c([C@H](OC(C)(C)C)C(=O)O)c4N4CCC(C)(C)CC4)ccc3C2)c1 [Compound 100, (S)-2-(tert-butoxy)-2-(5-(2-(3-chloro-5-methoxybenzyl)-1,2,3,4-tetrahydroisoquinolin-6-yl)-4-(4,4-dimethylpiperidin-1-yl)-2,6-dimethylpyridin-3-yl)acetic acid] | < 0.1
Cc1nc(C)c([C@H](OC(C)(C)C)C(=O)O)c(N2CCC(C)(C)CC2)c1-c1ccc2c(c1)CCN(Cc1c(F)ccc(F)c1F)C2 [Compound 44, (S)-2-(tert-butoxy)-2-(4-(4,4-dimethylpiperidin-1-yl)-2,6-dimethyl-5-(2-(2,3,6-trifluorobenzyl)-1,2,3,4-tetrahydroisoquinolin-6-yl)pyridin-3-yl)acetic acid] | < 0.1
Cc1cc(C)c(CN2CCc3cc(-c4c(C)nc(C)c([C@H](OC(C)(C)C)C(=O)O)c4N4CCC(C)(C)CC4)ccc3C2)cc1C [Compound 78, (S)-2-(tert-butoxy)-2-(4-(4,4-dimethylpiperidin-1-yl)-2,6-dimethyl-5-(2-(2,4,5-trimethylbenzyl)-1,2,3,4-tetrahydroisoquinolin-6-yl)pyridin-3-yl)acetic acid] | < 0.1
CCc1ccc(CN2CCc3cc(-c4c(C)nc(C)c([C@H](OC(C)(C)C)C(=O)O)c4N4CCC(C)(C)CC4)ccc3C2)cc1 [Compound 60, (S)-2-(tert-butoxy)-2-(4-(4,4-dimethylpiperidin-1-yl)-5-(2-(4-ethylbenzyl)-1,2,3,4-tetrahydroisoquinolin-6-yl)-2,6-dimethylpyridin-3-yl)acetic acid] | < 0.1
Cc1nc(C)c([C@H](OC(C)(C)C)C(=O)O)c(N2CCC(C)(C)CC2)c1-c1ccc2c(c1)CCN(Cc1ccccc1F)C2 [Compound 9, (S)-2-(tert-butoxy)-2-(4-(4,4-dimethylpiperidin-1-yl)-5-(2-(2-fluorobenzyl)-1,2,3,4-tetrahydroisoquinolin-6-yl)-2,6-dimethylpyridin-3-yl)acetic acid] | < 0.1
CCOc1cc(Cl)cc(Cl)c1CN1CCc2cc(-c3c(C)nc(C)c([C@H](OC(C)(C)C)C(=O)O)c3N3CCC(C)(C)CC3)ccc2C1 [Compound 90, (S)-2-(tert-butoxy)-2-(5-(2-(2,4-dichloro-6-ethoxybenzyl)-1,2,3,4-tetrahydroisoquinolin-6-yl)-4-(4,4-dimethylpiperidin-1-yl)-2,6-dimethylpyridin-3-yl)acetic acid] | < 0.1
Cc1nc(C)c([C@H](OC(C)(C)C)C(=O)O)c(N2CCC(C)(C)CC2)c1-c1ccc2c(c1)CCN(Cc1ccc(OC(F)F)cc1F)C2 [Compound 105, (S)-2-(tert-butoxy)-2-(5-(2-(4-(difluoromethoxy)-2-fluorobenzyl)-1,2,3,4-tetrahydroisoquinolin-6-yl)-4-(4,4-dimethylpiperidin-1-yl)-2,6-dimethylpyridin-3-yl)acetic acid] | < 0.1
Cc1nc(C)c([C@H](OC(C)(C)C)C(=O)O)c(N2CCC(C)(C)CC2)c1-c1ccc2c(c1)CCN(Cc1c(F)cccc1Cl)C2 [Compound 136, (S)-2-(tert-butoxy)-2-(5-(2-(2-chloro-6-fluorobenzyl)-1,2,3,4-tetrahydroisoquinolin-6-yl)-4-(4,4-dimethylpiperidin-1-yl)-2,6-dimethylpyridin-3-yl)acetic acid] | < 0.1
Cc1nc(C)c([C@H](OC(C)(C)C)C(=O)O)c(N2CCC(C)(C)CC2)c1-c1ccc2c(c1)CCN(Cc1ccc(OC(F)(F)F)cc1)C2 [Compound 102, (S)-2-(tert-butoxy)-2-(4-(4,4-dimethylpiperidin-1-yl)-2,6-dimethyl-5-(2-(4-(trifluoromethoxy)benzyl)-1,2,3,4-tetrahydroisoquinolin-6-yl)pyridin-3-yl)acetic acid] | < 0.1
Cc1cccc(F)c1CN1CCc2cc(-c3c(C)nc(C)c([C@H](OC(C)(C)C)C(=O)O)c3N3CCC(C)(C)CC3)ccc2C1 [Compound 51, (S)-2-(tert-butoxy)-2-(4-(4,4-dimethylpiperidin-1-yl)-5-(2-(2-fluoro-6-methylbenzyl)-1,2,3,4-tetrahydroisoquinolin-6-yl)-2,6-dimethylpyridin-3-yl)acetic acid] | < 0.1
Cc1nc(C)c([C@H](OC(C)(C)C)C(=O)O)c(N2CCC(C)(C)CC2)c1-c1ccc2c(c1)CCN(Cc1c(Cl)cccc1Cl)C2 [Compound 128, (S)-2-(tert-butoxy)-2-(5-(2-(2,6-dichlorobenzyl)-1,2,3,4-tetrahydroisoquinolin-6-yl)-4-(4,4-dimethylpiperidin-1-yl)-2,6-dimethylpyridin-3-yl)acetic acid] | < 0.1
Cc1cc(C)c(CN2CCc3cc(-c4c(C)nc(C)c([C@H](OC(C)(C)C)C(=O)O)c4N4CCC(C)(C)CC4)ccc3C2)c(C)c1 [Compound 57, (S)-2-(tert-butoxy)-2-(4-(4,4-dimethylpiperidin-1-yl)-2,6-dimethyl-5-(2-(2,4,6-trimethylbenzyl)-1,2,3,4-tetrahydroisoquinolin-6-yl)pyridin-3-yl)acetic acid] | < 0.1
Cc1nc(C)c([C@H](OC(C)(C)C)C(=O)O)c(N2CCC(C)(C)CC2)c1-c1ccc2c(c1)CCN(Cc1c(F)cc(F)cc1F)C2 [Compound 58, (S)-2-(tert-butoxy)-2-(4-(4,4-dimethylpiperidin-1-yl)-2,6-dimethyl-5-(2-(2,4,6-trifluorobenzyl)-1,2,3,4-tetrahydroisoquinolin-6-yl)pyridin-3-yl)acetic acid] | < 0.1
Cc1nc(C)c([C@H](OC(C)(C)C)C(=O)O)c(N2CCC(C)(C)CC2)c1-c1ccc2c(c1)CCN(Cc1ccccc1OC(C)C)C2 [Compound 152, (S)-2-(tert-butoxy)-2-(4-(4,4-dimethylpiperidin-1-yl)-5-(2-(2-isopropoxybenzyl)-1,2,3,4-tetrahydroisoquinolin-6-yl)-2,6-dimethylpyridin-3-yl)acetic acid] | < 0.1
Cc1nc(C)c([C@H](OC(C)(C)C)C(=O)O)c(N2CCC(C)(C)CC2)c1-c1ccc2c(c1)CCN(Cc1ccc(-c3ccccc3)cc1)C2 [Compound 14, (S)-2-(5-(2-([1,1′-biphenyl]-4-ylmethyl)-1,2,3,4-tetrahydroisoquinolin-6-yl)-4-(4,4-dimethylpiperidin-1-yl)-2,6-dimethylpyridin-3-yl)-2-(tert-butoxy)acetic acid] | < 0.1
Cc1nc(C)c([C@H](OC(C)(C)C)C(=O)O)c(N2CCC(C)(C)CC2)c1-c1ccc2c(c1)CCN(Cc1cccc(Cl)c1Cl)C2 [Compound 40, (S)-2-(tert-butoxy)-2-(5-(2-(2,3-dichlorobenzyl)-1,2,3,4-tetrahydroisoquinolin-6-yl)-4-(4,4-dimethylpiperidin-1-yl)-2,6-dimethylpyridin-3-yl)acetic acid] | < 0.1
COc1ccc(F)c(CN2CCc3cc(-c4c(C)nc(C)c([C@H](OC(C)(C)C)C(=O)O)c4N4CCC(C)(C)CC4)ccc3C2)c1 [Compound 116, (S)-2-(tert-butoxy)-2-(4-(4,4-dimethylpiperidin-1-yl)-5-(2-(2-fluoro-5-methoxybenzyl)-1,2,3,4-tetrahydroisoquinolin-6-yl)-2,6-dimethylpyridin-3-yl)acetic acid] | < 0.1
Cc1nc(C)c([C@H](OC(C)(C)C)C(=O)O)c(N2CCC(C)(C)CC2)c1-c1ccc2c(c1)CCN(Cc1ccccc1C#N)C2 [Compound 62, (S)-2-(tert-butoxy)-2-(5-(2-(2-cyanobenzyl)-1,2,3,4-tetrahydroisoquinolin-6-yl)-4-(4,4-dimethylpiperidin-1-yl)-2,6-dimethylpyridin-3-yl)acetic acid] | < 0.1
Cc1ccc(CN2CCc3cc(-c4c(C)nc(C)c([C@H](OC(C)(C)C)C(=O)O)c4N4CCC(C)(C)CC4)ccc3C2)c(F)c1F [Compound 73, (S)-2-(tert-butoxy)-2-(5-(2-(2,3-difluoro-4-methylbenzyl)-1,2,3,4-tetrahydroisoquinolin-6-yl)-4-(4,4-dimethylpiperidin-1-yl)-2,6-dimethylpyridin-3-yl)acetic acid] | < 0.1

Same assay, conditions: Human immunodeficiency virus 1, MT2, 120 h, read-out: EC50 μM

Compound | EC50 [µM]
Cc1cccc(F)c1CN1CCc2cc(-c3c(C)nc(C)c([C@H](OC(C)(C)C)C(=O)O)c3N3CCC(C)(C)CC3)ccc2C1 [Compound 51, (S)-2-(tert-butoxy)-2-(4-(4,4-dimethylpiperidin-1-yl)-5-(2-(2-fluoro-6-methylbenzyl)-1,2,3,4-tetrahydroisoquinolin-6-yl)-2,6-dimethylpyridin-3-yl)acetic acid] | 0.003
Cc1nc(C)c([C@H](OC(C)(C)C)C(=O)O)c(N2CCC(C)(C)CC2)c1-c1ccc2c(c1)CCN(Cc1ccc(-c3ccccc3)cc1)C2 [Compound 14, (S)-2-(5-(2-([1,1′-biphenyl]-4-ylmethyl)-1,2,3,4-tetrahydroisoquinolin-6-yl)-4-(4,4-dimethylpiperidin-1-yl)-2,6-dimethylpyridin-3-yl)-2-(tert-butoxy)acetic acid] | 0.034
COc1ccc(F)c(CN2CCc3cc(-c4c(C)nc(C)c([C@H](OC(C)(C)C)C(=O)O)c4N4CCC(C)(C)CC4)ccc3C2)c1 [Compound 116, (S)-2-(tert-butoxy)-2-(4-(4,4-dimethylpiperidin-1-yl)-5-(2-(2-fluoro-5-methoxybenzyl)-1,2,3,4-tetrahydroisoquinolin-6-yl)-2,6-dimethylpyridin-3-yl)acetic acid] | 0.002
Cc1ccc(CN2CCc3cc(-c4c(C)nc(C)c([C@H](OC(C)(C)C)C(=O)O)c4N4CCC(C)(C)CC4)ccc3C2)c(F)c1F [Compound 73, (S)-2-(tert-butoxy)-2-(5-(2-(2,3-difluoro-4-methylbenzyl)-1,2,3,4-tetrahydroisoquinolin-6-yl)-4-(4,4-dimethylpiperidin-1-yl)-2,6-dimethylpyridin-3-yl)acetic acid] | 0.007

Same assay, conditions: NL-RLuc virus in MT-2 cells, 5 days of incubation, luciferase; at least 2 experiments; read-out: Activity

Compound | EC50 [µM]
Cc1ccc(C(F)(F)F)cc1CN1CCc2cc(-c3c(C)nc(C)c([C@H](OC(C)(C)C)C(=O)O)c3N3CCC(C)(C)CC3)ccc2C1 [Compound 52, (S)-2-(tert-butoxy)-2-(4-(4,4-dimethylpiperidin-1-yl)-2,6-dimethyl-5-(2-(2-methyl-5-(trifluoromethyl)benzyl)-1,2,3,4-tetrahydroisoquinolin-6-yl)pyridin-3-yl)acetic acid] | < 0.1

Reference: patent US10189816B2, “Substituted pyridines as inhibitors of human immunodeficiency virus replication” (priority 2015, dated 2019)
